Assay results: ChEMBL document CHEMBL5291721, “A preclinical secondary pharmacology resource illuminates target-adverse drug reaction associations of marketed drugs” (Nat Commun, 2023)
Where a SMILES comes first, the peptide text is derived from it. [ ]: non-standard residue; d: D form. pGlu = O=C1CC[C@@H](C(=O)O)N1; Thz = O=C(O)[C@@H]1CSCN1

Experiments:
[1] = biological target: T1, Alpha-2C adrenergic receptor (Homo sapiens, UniProt P18825); format: functional
T1 sequence (P18825 whole entry): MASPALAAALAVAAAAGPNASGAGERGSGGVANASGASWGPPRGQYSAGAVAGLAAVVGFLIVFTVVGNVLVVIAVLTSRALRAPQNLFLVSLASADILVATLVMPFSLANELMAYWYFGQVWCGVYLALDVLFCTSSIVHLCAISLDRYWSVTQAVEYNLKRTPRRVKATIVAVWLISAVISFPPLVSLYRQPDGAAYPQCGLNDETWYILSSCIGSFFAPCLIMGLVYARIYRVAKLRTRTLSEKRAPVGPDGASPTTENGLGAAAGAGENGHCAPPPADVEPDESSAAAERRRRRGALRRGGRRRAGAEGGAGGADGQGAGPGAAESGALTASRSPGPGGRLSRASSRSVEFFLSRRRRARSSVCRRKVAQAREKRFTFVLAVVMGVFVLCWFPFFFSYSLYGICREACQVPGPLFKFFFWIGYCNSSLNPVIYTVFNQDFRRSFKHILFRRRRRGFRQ

[2] = biological target: Beta-2 adrenergic receptor (Homo sapiens, UniProt P07550)
Beta-2 adrenergic receptor, sequence (P07550 whole entry): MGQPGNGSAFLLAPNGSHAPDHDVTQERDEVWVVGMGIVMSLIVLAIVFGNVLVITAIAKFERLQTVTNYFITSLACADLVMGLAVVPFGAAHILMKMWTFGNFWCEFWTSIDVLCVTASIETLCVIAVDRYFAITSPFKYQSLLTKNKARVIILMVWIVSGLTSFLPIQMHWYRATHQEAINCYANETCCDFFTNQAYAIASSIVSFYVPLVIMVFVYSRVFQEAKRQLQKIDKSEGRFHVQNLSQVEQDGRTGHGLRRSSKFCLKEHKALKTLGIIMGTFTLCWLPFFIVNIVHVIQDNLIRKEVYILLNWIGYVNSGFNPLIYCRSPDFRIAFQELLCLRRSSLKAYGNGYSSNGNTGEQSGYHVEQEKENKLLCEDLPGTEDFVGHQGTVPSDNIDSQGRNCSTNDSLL

[3] = biological target: T2, Muscarinic acetylcholine receptor M2 (Homo sapiens, UniProt P08172); format: functional, cell-based
T2 sequence (P08172 whole entry): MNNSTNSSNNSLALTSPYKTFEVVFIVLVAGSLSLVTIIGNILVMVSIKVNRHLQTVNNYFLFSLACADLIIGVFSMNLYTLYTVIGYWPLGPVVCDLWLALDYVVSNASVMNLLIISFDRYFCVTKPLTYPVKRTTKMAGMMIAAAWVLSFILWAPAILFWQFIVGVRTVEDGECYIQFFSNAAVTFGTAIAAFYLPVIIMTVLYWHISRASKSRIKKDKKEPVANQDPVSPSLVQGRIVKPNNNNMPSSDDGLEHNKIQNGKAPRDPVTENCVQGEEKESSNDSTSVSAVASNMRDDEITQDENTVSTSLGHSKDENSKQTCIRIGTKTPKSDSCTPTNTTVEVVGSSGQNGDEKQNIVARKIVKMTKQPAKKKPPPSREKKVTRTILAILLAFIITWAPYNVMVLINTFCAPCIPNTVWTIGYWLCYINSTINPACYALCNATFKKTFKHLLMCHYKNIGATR

[4] = biological target: Delta-type opioid receptor (Homo sapiens, UniProt P41143)
Delta-type opioid receptor, sequence (P41143 whole entry): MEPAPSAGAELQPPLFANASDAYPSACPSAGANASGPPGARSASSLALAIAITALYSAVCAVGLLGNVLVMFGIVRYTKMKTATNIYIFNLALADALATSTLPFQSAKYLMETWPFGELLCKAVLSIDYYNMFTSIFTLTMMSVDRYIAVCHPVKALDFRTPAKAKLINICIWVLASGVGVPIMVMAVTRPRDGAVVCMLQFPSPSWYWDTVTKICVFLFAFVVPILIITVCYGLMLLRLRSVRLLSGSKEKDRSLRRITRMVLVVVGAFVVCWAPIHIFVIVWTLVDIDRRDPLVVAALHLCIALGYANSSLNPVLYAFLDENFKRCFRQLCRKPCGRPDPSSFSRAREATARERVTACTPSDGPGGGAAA

[5] = biological target: 3',5'-cyclic-AMP phosphodiesterase 4D (Homo sapiens, UniProt Q08499); format: functional
3',5'-cyclic-AMP phosphodiesterase 4D, sequence (Q08499 whole entry): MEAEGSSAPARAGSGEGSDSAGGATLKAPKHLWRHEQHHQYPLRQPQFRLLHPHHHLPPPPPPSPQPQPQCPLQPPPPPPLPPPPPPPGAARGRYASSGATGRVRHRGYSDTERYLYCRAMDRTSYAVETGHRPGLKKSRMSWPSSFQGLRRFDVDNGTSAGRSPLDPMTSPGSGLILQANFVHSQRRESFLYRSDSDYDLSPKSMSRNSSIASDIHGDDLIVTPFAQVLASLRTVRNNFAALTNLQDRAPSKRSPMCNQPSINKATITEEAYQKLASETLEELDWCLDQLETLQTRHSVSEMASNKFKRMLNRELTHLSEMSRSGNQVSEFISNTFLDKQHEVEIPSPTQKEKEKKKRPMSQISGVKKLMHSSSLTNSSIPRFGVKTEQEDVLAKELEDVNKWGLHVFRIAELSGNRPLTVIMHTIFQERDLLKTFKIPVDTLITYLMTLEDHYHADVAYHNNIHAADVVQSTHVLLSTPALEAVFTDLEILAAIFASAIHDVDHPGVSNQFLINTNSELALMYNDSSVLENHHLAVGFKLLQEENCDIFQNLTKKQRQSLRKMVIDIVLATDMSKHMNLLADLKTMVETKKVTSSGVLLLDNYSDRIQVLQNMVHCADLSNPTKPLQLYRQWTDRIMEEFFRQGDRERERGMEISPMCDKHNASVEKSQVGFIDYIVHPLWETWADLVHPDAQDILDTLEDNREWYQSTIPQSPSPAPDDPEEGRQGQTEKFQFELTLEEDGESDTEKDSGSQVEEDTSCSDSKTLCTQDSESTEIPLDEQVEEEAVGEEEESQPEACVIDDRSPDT

[6] = biological target: T3, Prostaglandin G/H synthase 1 (Rattus norvegicus, UniProt Q63921); format: functional
T3 sequence (Q63921 whole entry): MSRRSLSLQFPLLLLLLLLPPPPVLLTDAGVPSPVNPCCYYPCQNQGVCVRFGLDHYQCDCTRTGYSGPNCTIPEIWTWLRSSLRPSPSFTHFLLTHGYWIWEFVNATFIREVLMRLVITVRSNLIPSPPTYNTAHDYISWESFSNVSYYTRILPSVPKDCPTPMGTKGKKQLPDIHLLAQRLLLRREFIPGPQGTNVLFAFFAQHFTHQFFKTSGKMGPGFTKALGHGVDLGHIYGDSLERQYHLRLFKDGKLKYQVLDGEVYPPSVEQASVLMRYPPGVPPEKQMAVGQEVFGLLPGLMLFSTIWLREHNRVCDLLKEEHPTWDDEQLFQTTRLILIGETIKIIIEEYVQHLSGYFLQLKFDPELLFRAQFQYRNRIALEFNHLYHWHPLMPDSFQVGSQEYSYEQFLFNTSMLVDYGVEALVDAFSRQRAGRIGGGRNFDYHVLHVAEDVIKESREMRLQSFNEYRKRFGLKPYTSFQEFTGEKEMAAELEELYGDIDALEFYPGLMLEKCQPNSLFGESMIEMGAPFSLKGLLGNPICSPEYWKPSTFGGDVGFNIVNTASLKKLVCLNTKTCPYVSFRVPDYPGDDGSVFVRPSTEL

[7] = biological target: T4, Equilibrative nucleoside transporter 1 (Homo sapiens, UniProt Q99808)
T4 sequence (Q99808 whole entry): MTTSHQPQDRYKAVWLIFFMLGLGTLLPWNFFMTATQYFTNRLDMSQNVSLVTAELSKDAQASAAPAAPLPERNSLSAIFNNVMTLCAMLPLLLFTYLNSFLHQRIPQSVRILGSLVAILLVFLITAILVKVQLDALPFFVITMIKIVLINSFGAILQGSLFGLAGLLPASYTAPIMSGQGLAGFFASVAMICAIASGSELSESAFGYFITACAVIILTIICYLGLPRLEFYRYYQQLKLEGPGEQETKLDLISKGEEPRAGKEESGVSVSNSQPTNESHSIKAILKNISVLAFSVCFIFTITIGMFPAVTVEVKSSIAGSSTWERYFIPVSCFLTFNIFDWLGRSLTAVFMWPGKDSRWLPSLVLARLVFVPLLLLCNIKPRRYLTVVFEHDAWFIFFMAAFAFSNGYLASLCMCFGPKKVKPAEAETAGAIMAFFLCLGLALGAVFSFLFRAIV
Further: assay procedure not described here.

SMILES	AC50 [1]	AC50 [2]	AC50 [3]	AC50 [4]	AC50 [5]	AC50 [6]	AC50 [7]
O=C(O)CCNC(=O)c1ccc(/N=N/c2ccc(O)c(C(=O)O)c2)cc1 [BALSALAZIDE]	> 30 µM	> 30 µM	> 30 µM	> 30 µM	> 30 µM	> 30 µM	30 µM
O=C(O)c1ccc(NC(=O)[C@H](Cc2ccc(O)cc2)NC(=O)c2ccccc2)cc1 [BENTIROMIDE]	> 10 µM	> 10 µM	> 10 µM	> 30 µM	> 30 µM	> 10 µM	> 10 µM
NS(=O)(=O)c1cc2c(cc1Cl)N=C(CSCc1ccccc1)NS2(=O)=O [BENZTHIAZIDE]	1.5 µM	> 10 µM	> 10 µM	> 30 µM	> 30 µM	> 10 µM	> 10 µM
Clc1ccc(CCC(Cn2ccnc2)Sc2c(Cl)cccc2Cl)cc1 (configuration not stated) [BUTOCONAZOLE]	> 30 µM	> 30 µM	> 30 µM	> 30 µM	11 µM	14 µM	> 30 µM
CC(CN(C)C)C(C)(O)Cc1ccc(Cl)cc1 (configuration not stated) [CLOBUTINOL]	> 10 µM	> 30 µM	> 10 µM	> 30 µM	> 30 µM	> 30 µM	> 30 µM
CCOC(=O)C(C)(C)Oc1ccc(Cl)cc1 [CLOFIBRATE]	> 10 µM	> 10 µM	> 10 µM	> 30 µM	> 30 µM	> 30 µM	> 30 µM
C[C@@H]1C[C@H]2[C@@H]3CCC4=CC(=O)C=C[C@]4(C)[C@@]3(F)[C@@H](O)C[C@]2(C)[C@@]1(O)C(=O)CO [DEXAMETHASONE]	> 30 µM	> 30 µM	> 10 µM	> 30 µM	> 30 µM	> 30 µM	> 30 µM
CC(C)[C@@H](C)/C=C/[C@@H](C)[C@H]1CC[C@H]2/C(=C/C=C3\C[C@@H](O)CC[C@@H]3C)CCC[C@]12C [DIHYDROTACHYSTEROL]	> 10 µM	> 10 µM	> 10 µM	> 30 µM	> 30 µM	> 10 µM	> 10 µM
Oc1ccc(CCNCCCCCCNCCc2ccccc2)cc1O [DOPEXAMINE]	1.2 µM	3.8 µM	> 30 µM	> 30 µM	29 µM	> 30 µM	> 30 µM
CCN1CC(CCN2CCOCC2)C(c2ccccc2)(c2ccccc2)C1=O (configuration not stated) [DOXAPRAM]	> 30 µM	> 30 µM	> 30 µM	> 30 µM	> 30 µM	> 30 µM	> 30 µM
CCCCOc1ccc(C(=O)CCN2CCCCC2)cc1 [DYCLONINE]	8.4 µM	> 10 µM	> 10 µM	> 10 µM	11 µM	> 30 µM	> 30 µM
CCc1cc2c(s1)-n1c(C)nnc1CN=C2c1ccccc1Cl [ETIZOLAM]	> 30 µM	> 30 µM	> 30 µM	> 30 µM	19 µM	> 30 µM	> 30 µM
CCOC(=O)c1ncn2c1CN(C)C(=O)c1cc(F)ccc1-2 [FLUMAZENIL]	> 30 µM	> 30 µM	> 30 µM	> 30 µM	> 30 µM	> 30 µM	> 30 µM
CC/C=C\C/C=C\C/C=C\C/C=C\C/C=C\CCCC(=O)OCC [ICOSAPENT ETHYL]	> 30 µM	> 30 µM	> 30 µM	> 30 µM	12 µM	2.4 µM	> 30 µM
NNC(=O)c1ccncc1 [ISONIAZID]	> 30 µM	> 30 µM	> 30 µM	> 30 µM	> 30 µM	> 30 µM	> 30 µM
COc1ccc(CN2CCN(C(c3ccc(F)cc3)c3ccc(F)cc3)CC2)c(OC)c1OC [LOMERIZINE]	4.2 µM	> 30 µM	> 30 µM	> 30 µM	> 30 µM	> 30 µM	> 30 µM
O=C1Nc2ccc(Cl)cc2C(c2ccccc2Cl)=NC1O (configuration not stated) [LORAZEPAM]	> 10 µM	> 10 µM	> 10 µM	> 30 µM	> 30 µM	> 30 µM	> 30 µM
CC(=O)[C@H]1CC[C@H]2[C@@H]3C[C@H](C)C4=CC(=O)CC[C@]4(C)[C@H]3[C@@H](O)C[C@]12C [MEDRYSONE]	> 10 µM	> 10 µM	> 10 µM	> 30 µM	> 30 µM	> 10 µM	> 10 µM
CCCC(C)(COC(N)=O)COC(N)=O [MEPROBAMATE]	> 30 µM	> 10 µM	> 10 µM	> 30 µM	> 30 µM	> 10 µM	> 10 µM
COc1ccc2cc(CCC(C)=O)ccc2c1 [NABUMETONE]	> 30 µM	> 10 µM	> 10 µM	> 30 µM	> 30 µM	> 10 µM	> 30 µM
Cc1ccnc2c1NC(=O)c1cccnc1N2C1CC1 [NEVIRAPINE]	> 10 µM	> 10 µM	> 10 µM	> 10 µM	> 10 µM	> 30 µM	> 30 µM
O=C(c1cc(Cc2n[nH]c(=O)c3ccccc23)ccc1F)N1CCN(C(=O)C2CC2)CC1 [OLAPARIB]	> 10 µM	> 30 µM	> 10 µM	> 30 µM	> 30 µM	> 30 µM	> 30 µM
NC(=O)NC(=O)Cc1ccccc1 [PHENACEMIDE]	> 10 µM	> 10 µM	> 10 µM	> 30 µM	> 30 µM	> 10 µM	> 10 µM
OC[C@H]1O[C@@H](Oc2cc(O)cc(/C=C/c3ccc(O)cc3)c2)[C@H](O)[C@@H](O)[C@@H]1O [PICEID]	> 30 µM	> 30 µM	> 30 µM	> 30 µM	> 30 µM	4.4 µM	> 30 µM
O=C1CC[C@@H](C(=O)N2CSC[C@H]2C(=O)O)N1 [PIDOTIMOD] ([pGlu]-[Thz]-OH)	> 30 µM	> 30 µM	> 30 µM	> 30 µM	> 30 µM	> 30 µM	> 30 µM
CCCN(CCC)S(=O)(=O)c1ccc(C(=O)O)cc1 [PROBENECID]	> 10 µM	> 10 µM	> 10 µM	> 30 µM	> 30 µM	> 10 µM	> 10 µM
